Values of other authors as cited in US20090253744A1, “Acylated piperidine derivatives as melanocortin-4 receptor modulators” (priority 2006, published 2009).

Legend:
[1] = system: erectile dysfunction; conditions: in vivo
[2] = system: males with psychogenic erectile dysfunction; conditions: injected intramuscularly or subcutaneously

Molecule | effective in % of patients [1] | response rate [2] [%]
CCCc1nn(C)c2c(=O)[nH]c(-c3cc(S(=O)(=O)N4CCN(C)CC4)ccc3OCC)nc12 [Sildenafil] | about 70% | –
Ac-Nle-c[Asp-His-DPhe-Arg-Trp-Lys]-NH2 [MT-II] | – | 75
